Measured values from paper PMC6835763, “Influence of Short Cationic Lipopeptides with Fatty Acids of Different Chain Lengths on Bacterial Biofilms Formed on Polystyrene and Hydrogel Surfaces” (Pharmaceutics, 2019).
In brackets after ≈: the same amount, converted by molar mass. Where a SMILES comes first, the peptide text is derived from it. Bridges are numbered along the chain shown (N, C = ends). Roman numbers before positions name the chains, in order. The star is where a group is joined. Palmitoyl = CCCCCCCCCCCCCCCC(=O)*; Lauroyl = CCCCCCCCCCCC(=O)*

Columns and labels:
[1] = tested on: Pseudomonas aeruginosa ATCC 9027; type: cell-based; settings: ATCC 9027, 24 h
Experimental: (§1) The biofilms of bacteria associated with the biofilm-related infections were cultured on 96-well flat bottom PS and on CL placed in 24-well plates. The bacteria at initial inoculums of 5 × 10^8 CFU/mL in MHB II were added to the plates and incubated at 37 °C under aerobic conditions. After 24 h of incubation, all cultures were rinsed three times with PBS and fresh medium was added. Subsequently, the obtained biofilm cultures were exposed to solutions of antimicrobials applied at graded concentrations ranging from 1 to 512 μg/mL for 24 h at 37 °C. The anti-biofilm activity of antimicrobials was visualized by resazurin (final concentration per sample = 0.005%) in the same way as in the MBFIC assay. All experiments were performed in triplicate and included growth controls (positive control: bacterial suspension without antimicrobials) and sterility controls (negative controls: sterile MBH II medium).

[2] = tested on: Staphylococcus aureus ATCC 25923; type: cell-based; settings: ATCC 25923, 24 h
Experimental: as §1

[3] = tested on: Staphylococcus epidermidis ATCC 14990; type: cell-based; settings: ATCC 14990, 24 h
Experimental: as §1

[4] = tested on: Proteus mirabilis PCM 543; type: cell-based; settings: PCM 543, 24 h
Experimental: as §1

[5] = tested on: Enterococcus faecalis ATCC 29212; type: cell-based; settings: ATCC 29212, 24 h
Experimental: as §1

[6] = tested on: Escherichia coli ATCC 25922; type: cell-based; settings: ATCC 25922, 24 h
Experimental: as §1

[7] = tested on: Pseudomonas aeruginosa ATCC 9027; assay: MBFIC assay (biofilm formation inhibition, resazurin); type: cell-based; settings: ca. 5 × 10^8 CFU/mL in MHB II, 37 °C, 18 h, visual, triplicate; for MBFIC P. aeruginosa, CL: contact lenses (CL, Etafilcon A hydrogel) in 24-well plates; for MBFIC P. aeruginosa, PS: polystyrene plates (PS), 96-well
Experimental: (§2) To determine the inhibitory effect of antimicrobials on the formation of biofilm on hydrophobic surfaces, the bacterial suspensions of strains (initial inoculum of ca. 5 × 10^8 CFU/mL in MHB II medium supplemented with antimicrobials) were cultured on 96-well PS at 37 °C for 18 h under aerobic conditions. After incubation, the suspensions were aspirated, and the wells were rinsed three times with sterile phosphate buffer PBS (AppliChem, Darmstadt, Germany) in order to remove the planktonic cells. Resazurin (final concentration per sample = 0.005%) was applied as a cell viability reagent for reading the results. In contact with the living cells, the dye is metabolized by bacterial dehydrogenases, resulting in a reduction of blue resazurin to pink resorufin. All assays were performed in triplicate and included the growth controls (positive controls: bacterial suspensions without antimicrobials) and the sterility controls (negative controls: a sterile MBH medium). After 1h of incubation, a visual evaluation of results was made. […] In a preliminary study, it was established that the application of lipopeptides at a concentration found active from visual evaluation caused the reduction of bacterial metabolism to approximately 10% (or less) of the positive control once the results were evaluated with a spectrophotometer. After 1 h of incubation with the dye, absorbance was measured at 570 and 600 nm using a microplate reader (Thermo Fisher Scientific, Waltham, MA, USA). The metabolic activity of bacteria in the samples was measured according to the formula presented in the previous paper.
(§3) The MBFIC assay with CL was applied in order to access the influence of lipopeptides on the biofilm formation on hydrogel surfaces. The entire sterile CL (1-Day Acuvue Moist, containing Etafilcon A., purchased from Johnson & Johnson (Vision Care, Jacksonsville, FL, USA), were placed in 24-well PS (Orange Scientific, Braine-l’ Alleud, Belgium) and the MBFICs were determined according to the above protocol.

[8] = tested on: Staphylococcus aureus ATCC 25923; assay: as above; type: cell-based; settings: ca. 5 × 10^8 CFU/mL in MHB II, 37 °C, 18 h, resazurin, visual, triplicate; for MBFIC S. aureus, CL: contact lenses (CL, Etafilcon A hydrogel) in 24-well plates; for MBFIC S. aureus, PS: polystyrene plates (PS), 96-well
Experimental: as §2, §3

[9] = tested on: Staphylococcus epidermidis ATCC 14990; assay: as above; type: cell-based; settings: ca. 5 × 10^8 CFU/mL in MHB II, 37 °C, 18 h, resazurin, visual, triplicate; for MBFIC S. epidermidis, CL: contact lenses (CL, Etafilcon A hydrogel) in 24-well plates; for MBFIC S. epidermidis, PS: polystyrene plates (PS), 96-well
Experimental: as §2, §3

[10] = tested on: Proteus mirabilis PCM 543; assay: as above; type: cell-based; settings: ca. 5 × 10^8 CFU/mL in MHB II, 37 °C, 18 h, visual, triplicate; for MBFIC P. mirabilis, CL: contact lenses (CL, Etafilcon A hydrogel) in 24-well plates; for MBFIC P. mirabilis, PS: polystyrene plates (PS), 96-well
Experimental: as §2, §3

[11] = tested on: Enterococcus faecalis ATCC 29212; assay: as above; type: cell-based; settings: ca. 5 × 10^8 CFU/mL in MHB II, 37 °C, 18 h, visual, triplicate; for MBFIC E. faecalis, CL: contact lenses (CL, Etafilcon A hydrogel) in 24-well plates; for MBFIC E. faecalis, PS: polystyrene plates (PS), 96-well
Experimental: as §2, §3

[12] = tested on: Escherichia coli ATCC 25922; assay: as above; type: cell-based; settings: ca. 5 × 10^8 CFU/mL in MHB II, 37 °C, 18 h, visual, triplicate; for MBFIC E. coli, CL: contact lenses (CL, Etafilcon A hydrogel) in 24-well plates; for MBFIC E. coli, PS: polystyrene plates (PS), 96-well
Experimental: as §2, §3

[13] = RP-HPLC retention to evaluate the hydrophobicity of lipopeptides; type: physicochemical; settings: chromatographic, Luna C18(2) 3.0 × 100 mm, 5.0 µm, linear 20–80% acetonitrile in water over 10 min, 0.1% formic acid, 0.5 mL/min, UV 214 nm, used to evaluate hydrophobicity
Experimental: The crude peptide was lyophilized and subsequently purified by RP-HPLC. The purifications were carried out on a Phenomenex Gemini-NX C18 column (21.20 × 100 mm, 5.0 µm particle size, and 110 Å pore size). Acetonitrile and water, both containing 0.1% of TFA, were used as the mobile phase. UV detection at 214 nm was used. The crude peptides were eluted with a linear 20–80% acetonitrile gradient in deionized water over 60 min at a flow rate of 10.0 mL/min. The purity and identity of the peptides were confirmed with LC-MS analysis. A Waters Alliance e2695 RP-HPLC system (Waters, Milford, MA, USA) with Waters 2998 PDA (Waters, Milford, MA, USA) and Acquity QDA detectors (Empower®3 software, Database Version 7.21.00.00) was used. All analyses were carried out on a Phenomenex, Luna C18(2) column (3.0 × 100 mm, 5.0 µm particle size, 100 Å pore size). The samples were analyzed with a linear 20–80% acetonitrile gradient in deionized water over 10 min at a flow rate of 0.5 mL/min with UV detection at 214 nm. Both eluents contained 0.1% (v/v) of formic acid. The pure fractions (>95%, by HPLC analysis) were collected and lyophilized. The retention time and percentage of ACN (%) at which each peptide was eluted are included in Table 1 to evaluate the hydrophobicity of lipopeptides. The identity of all compounds was confirmed using mass spectrometry (Waters Alliance e2695 system with Acquity QDA detector, Waters, Milford, MA, USA) with electrospray ionization in positive ion mode (ESI-MS). In this mode, a proton is attached to basic moieties (amine groups, guanidine groups). The theoretical mass of the peptide was calculated and then expected ions (m/z—mass to charge ratio) were compared to measured m/z. The results are presented in Table 1, and mass spectra are presented in the Supplementary Materials.

[14] = tested on: Pseudomonas aeruginosa ATCC 9027; type: cell-based; settings: ATCC 9027, 18 h
Experimental: (§4) The reference strains of gram-positive and gram-negative bacteria (Table 2) were obtained from the Polish Collection of Microorganisms (Polish Academy of Science, Wroclaw, Poland). The microorganisms were cultured in Muller Hinton Broth II (MHB II, Biocorp, Warsaw, Poland), overnight, at 37 °C. The MICs of synthetic lipopeptides and conventional antimicrobials were determined using the broth microdilution method according to the Clinical and Laboratory Standard Institute (CLSI) guidelines on reference strains. […] The PS were incubated under aerobic conditions at 37 °C for 18 h. The MIC (μg/mL) was assumed as the lowest concentration of the compound that inhibited the growth of the microorganisms. All experiments were performed in triplicate and included the growth and sterility controls.

[15] = tested on: Staphylococcus aureus ATCC 25923; type: cell-based; settings: ATCC 25923, 18 h
Experimental: as §4

[16] = tested on: Staphylococcus epidermidis ATCC 14990; type: cell-based; settings: ATCC 14990, 18 h
Experimental: as §4

[17] = tested on: Enterococcus faecalis ATCC 29212; type: cell-based; settings: ATCC 29212, 18 h
Experimental: as §4

[18] = tested on: Escherichia coli ATCC 25922; type: cell-based; settings: ATCC 25922, 18 h
Experimental: as §4

PM biofilm = settings: cited from earlier work; for concentration eradicating the PM biofilm: mature PM biofilms
Source text: They were ineffective against PM, which was difficult to eradicate with peptides (and antibiotics) in previously performed studies. PM can cause infections of the urinary tract, skin, subcutaneous tissue, and wounds. PM is known as a biofilm former, and an evident increase of PM resistance to broad-spectrum fluoroquinolones and cephalosporins has been observed. In the previous study, mature PM b ...

## CCCCCCCCCCCC(=O)N[C@@H](CCCCN)C(=O)N[C@@H](CCCNC(=N)N)C(N)=O [Lipopeptide 2, C12-KR-NH2] (Lauroyl-Lys-Arg-NH2)
[1]
  MBEC P. aeruginosa, CL: >512/>512 μg/mL
[2]
  MBEC S. aureus, CL: > 512 µg/mL
[3]
  MBEC S. epidermidis, CL: 256 µg/mL
[4]
  MBEC P. mirabilis, CL: >512/>512 μg/mL
[5]
  MBEC E. faecalis, CL: 128 µg/mL
[6]
  MBEC E. coli, CL: 512 µg/mL
[7]
  MBFIC P. aeruginosa, CL: 512/512 μg/mL
  MBFIC P. aeruginosa, PS: 512/512 μg/mL
[8]
  MBFIC S. aureus, CL: 128 µg/mL
  MBFIC S. aureus, PS: 64 µg/mL
[9]
  MBFIC S. epidermidis, CL: 32 µg/mL
  MBFIC S. epidermidis, PS: 16 µg/mL
[10]
  MBFIC P. mirabilis, CL: >512/512 μg/mL
  MBFIC P. mirabilis, PS: >512/512 μg/mL
[11]
  MBFIC E. faecalis, CL: 512/512 μg/mL
  MBFIC E. faecalis, PS: 512/512 μg/mL
[12]
  MBFIC E. coli, CL: 128 µg/mL
  MBFIC E. coli, PS: 512 µg/mL
[13]
  % ACN at which the peptide was eluted: 33.9%
  tR' (adjusted retention time): 2.32 min
[14]
  MIC P. aeruginosa: 512 µg/mL (≈ 1060 µM)
[15]
  MIC S. aureus: 64 µg/mL (≈ 132 µM)
[16]
  MIC S. epidermidis: 32 µg/mL (≈ 66.2 µM)
[17]
  MIC E. faecalis: 64 µg/mL (≈ 132 µM)
[18]
  MIC E. coli: 512 µg/mL (≈ 1060 µM)

## CCCCCCCCCCCCCCCC(=O)N[C@@H](CCCCN)C(=O)N[C@@H](CCCCN)C(=O)N[C@@H](CSSC[C@H](NC(=O)[C@H](CCCCN)NC(=O)[C@H](CCCCN)NC(=O)CCCCCCCCCCCCCCC)C(N)=O)C(N)=O [Lipopeptide 6, C16-KKC-NH2] (I: Palmitoyl-Lys-Lys-Cys-NH2 / II: Palmitoyl-Lys-Lys-Cys-NH2; disulfide I:3-II:3)
[1]
  MBEC P. aeruginosa, CL: >512/>512 μg/mL
[2]
  MBEC S. aureus, CL: 512 µg/mL
[3]
  MBEC S. epidermidis, CL: 256/256 μg/mL
[4]
  MBEC P. mirabilis, CL: >512/>512 μg/mL
[5]
  MBEC E. faecalis, CL: 512/512 μg/mL
[6]
  MBEC E. coli, CL: 512/512 μg/mL
[7]
  MBFIC P. aeruginosa, CL: 256 µg/mL
  MBFIC P. aeruginosa, PS: 512 µg/mL
[8]
  MBFIC S. aureus, CL: 64 µg/mL
  MBFIC S. aureus, PS: 256 µg/mL
[9]
  MBFIC S. epidermidis, CL: 64 µg/mL
  MBFIC S. epidermidis, PS: 256 µg/mL
[10]
  MBFIC P. mirabilis, CL: >512/512 μg/mL
  MBFIC P. mirabilis, PS: >512/512 μg/mL
[11]
  MBFIC E. faecalis, CL: 256/256 μg/mL
  MBFIC E. faecalis, PS: 256/256 μg/mL
[12]
  MBFIC E. coli, CL: 128 µg/mL
  MBFIC E. coli, PS: 512 µg/mL
[13]
  % ACN at which the peptide was eluted: 47.8%
  tR' (adjusted retention time): 4.63 min
[14]
  MIC P. aeruginosa: 256 µg/mL (≈ 208 µM)
[15]
  MIC S. aureus: 256 µg/mL (≈ 208 µM)
[16]
  MIC S. epidermidis: 128 µg/mL (≈ 104 µM)
[17]
  MIC E. faecalis: 256 µg/mL (≈ 208 µM)
[18]
  MIC E. coli: 256 µg/mL (≈ 208 µM)

## C16-KK-NH2 [Lipopeptide C16-KK-NH2]
PM biofilm
  concentration eradicating the PM biofilm: 512 µg/mL

## C16-RR-NH2 [Lipopeptide C16-RR-NH2]
PM biofilm
  susceptibility of mature PM biofilms: resistant

## citropin 1.1
PM biofilm
  susceptibility of mature PM biofilms: resistant

## omiganan
PM biofilm
  susceptibility of mature PM biofilms: resistant

## pexiganan
PM biofilm
  susceptibility of mature PM biofilms: resistant

## polymyxin B
PM biofilm
  concentration eradicating the PM biofilm: 512 µg/mL
